Measured values taken from patent US6869603B2, “Lipoprotein lipase and lipoprotein lipase activators in the treatment of inflammatory conditions” (The Brigham and Women's Hospital, Inc., priority 2001, dated 2005).
“Also recorded” adds a separate entry of the source.

What was measured:
VCAM-1 promoter = assay: VCAM-1 promoter-luc transient transfection in bovine endothelial cells (BoEC); type: cell-based
Procedure: Transient transfection: Transient transfection was carried out in primary (passage 3 to 6) bovine aortic endothelial cells using the Superfect method (Qiagen, Germany) according to manufacturer's directions. Briefly, cells were plated in 24-well plates at 2.3×10^4 cells per well in DMEM containing 10% fetal calf serum. After 16 h of growth, cells were washed with HBSS and transfected with medium containing Superfect/DNA (ratio 5.5/1) for 4 hours or with FuGene (1.5/1) overnight. Reporter construct pUASx4-TK-luc, chimeric human PPAR-alpha-LBD constructs, PPAR-alpha and LDL receptor (LDLr) overexpression vectors, and the VCAM-1 promoter-luc, have been described previously. A PCMX-B-galactosidase expression vector was used as a transfection control. Cells were maintained overnight in medium, followed by treatment with compounds for 10 hrs in DMEM medium containing 1% FCS (for PPAR-alpha-LBD constructs) and 1% Nutridoma SP (for VCAM-1 promoter studies). Cells lysed in buffer (Pharmingen) were assayed for luciferase activity using a reported assay system (Pharmingen) according to the manufacturer's instructions. β-galactosidase activity was monitored at 540 nm using CRPTG (Boeringer Mannheim) as substrate. LDL− augments TNFα-mediated VCAM-1 expression: Surface expression of VCAM-1 was studied in HUVEC activated by TNFα. […]

[1] = test system: acyl-coenzymeA-oxidase (ACO); assay: ACO mRNA expression (Northern blot) in HepG2 and primary human macrophages; type: cell-based
Procedure: Cell Culture: Circulating human monocytes were isolated from healthy volunteers. Differentiated cells (day 7-10) were treated in M199 medium. Peritoneal Mφ were isolated after 5% thioglycollate broth injection into 2-6 month old PPAR-alpha^+/+ and PPAR-alpha^−/− mice. Mφ were cultured in 10% FCS/DMEM 24 h prior to stimulation. HepG2 cells (ATCC, Manassas, Va.) were cultured in 10% FCS/DMEM.
RNA analysis: Total cell RNA was isolated using RNAEasy kit (Qiagen, Valencia, Calif.), separated using a 1% agarose gel, transferred to a Hydrobone membrane (Amersham, Piscataway, N.J.) and Northern blotting was then performed. cDNA probes for LPL and ACO were obtained from ATCC (Manassas, Va.).
LPL lipolysis of TG-LP activates PPARα-regulated genes: We tested if activation of PPAR-alpha by VLDL/LPL induced expression of an established PPAR-alpha target gene, acyl-coenzymeA-oxidase (ACO). […] In vivo, increased ACO expression has been shown in LPL-overexpressing mice.

[2] = target: T1, PPAR-alpha-ligand binding domain (LBD) (Homo sapiens, UniProt Q07869); assay: PPAR-alpha-LBD/GAL4 chimeric construct activation (luciferase) in transiently transfected primary bovine aortic endothelial cells; type: cell-based; settings: for Effect on VLDL/LPL-mediated PPAR-alpha-LBD activation: agent added to VLDL/LPL treatment; for Effect on LPL/LDL− dependent activation of PPAR-alpha: agent added to LDL−/LPL
T1 construct: yeast GAL4 (fusion partner); expressed in transfected cells; host or cells: primary bovine aortic endothelial cells (passage 3-6)
T1 sequence (Q07869 239-466 limits assumed): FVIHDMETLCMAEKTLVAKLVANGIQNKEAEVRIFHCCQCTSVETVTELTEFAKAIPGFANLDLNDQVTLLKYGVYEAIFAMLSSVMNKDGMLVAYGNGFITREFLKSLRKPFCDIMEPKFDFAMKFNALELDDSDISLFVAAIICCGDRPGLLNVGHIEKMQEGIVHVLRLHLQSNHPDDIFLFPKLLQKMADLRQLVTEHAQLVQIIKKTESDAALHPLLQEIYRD
T1 sequence (P04386 1-147 partner limits assumed): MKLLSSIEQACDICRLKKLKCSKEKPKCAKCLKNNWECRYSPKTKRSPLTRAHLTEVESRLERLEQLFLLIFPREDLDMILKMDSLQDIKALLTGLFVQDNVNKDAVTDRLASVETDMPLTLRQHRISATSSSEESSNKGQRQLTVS
Procedure: Transient transfection: Transient transfection was carried out in 24-well plates at 2.3×10^4 primary bovine aortic EC (passage 3-6) per well using Superfect (Qiagen) or Fugene (F. Hoffmann-La Roche). PCMX-β-galactosidase expression vector was used for transfection control. LPL and LPL mutant expression vectors have been previously characterized. Luciferase (Pharmingen, San Diego, Calif.) and P-galactosidase activity were measured according to manufacturer's protocols.
LPL lipolysis of TG-LP generates PPARα ligands: We tested if LPL generates endogenous PPAR-alpha ligands from TG-LP by analyzing activation of chimeric PPAR-alpha-ligand binding domain (LBD) constructs in yeast GAL4 assays. […] Maximal induction was highest for VLDL (21 fold), followed by LDL (14 fold) and HDL (7 fold).
Transient transfection: Transient transfection was carried out in primary (passage 3 to 6) bovine aortic endothelial cells using the Superfect method (Qiagen, Germany) according to manufacturer's directions. Briefly, cells were plated in 24-well plates at 2.3×10^4 cells per well in DMEM containing 10% fetal calf serum. After 16 h of growth, cells were washed with HBSS and transfected with medium containing Superfect/DNA (ratio 5.5/1) for 4 hours or with FuGene (1.5/1) overnight. Reporter construct pUASx4-TK-luc, chimeric human PPAR-alpha-LBD constructs, PPAR-alpha and LDL receptor (LDLr) overexpression vectors, and the VCAM-1 promoter-luc, have been described previously. A PCMX-B-galactosidase expression vector was used as a transfection control. Cells were maintained overnight in medium, followed by treatment with compounds for 10 hrs in DMEM medium containing 1% FCS (for PPAR-alpha-LBD constructs) and 1% Nutridoma SP (for VCAM-1 promoter studies). Cells lysed in buffer (Pharmingen) were assayed for luciferase activity using a reported assay system (Pharmingen) according to the manufacturer's instructions. β-galactosidase activity was monitored at 540 nm using CRPTG (Boeringer Mannheim) as substrate.

VCAM-1 = assay: Cell surface ELISA of VCAM-1 expression in HUVEC; type: cell-based, human; settings: single stimulus
Procedure: Cell Culture: Human endothelial cells were isolated from umbilical veins and cultured in M199 medium (BioWittaker) containing penicillin/streptomycin, Fungozom, ECGF and 5% fetal calf serum. Cells from passage 3 to 5 were used for experiments. Cells were pretreated with 100 uM fenofibric acid or WY 14643 for 24 h and with LDL species/LPL for 1 h prior to addition of 50 ng/ml TNFα. Subsequent duration of incubations varied. Prior to any procedure cells were washed with ice-cold PBS.
Cell surface ELISA assays were preformed in 96-well plates on confluent monolayers of HUVEC. Treated cells were maintained on ice for 10 minutes, washed with cold PBS and incubated with monoclonal antibodies raised against human VCAM-1. VCAM-1 expression was visualized using alkaline phosphate secondary antibody and measured at […].
LDL− augments TNFα-mediated VCAM-1 expression: Surface expression of VCAM-1 was studied in HUVEC activated by TNFα. Cell stimulation with LDL− lead to approximately a two-fold increase in VCAM-1 expression. In presence of TNFα, VCAM-1 expression was increased 5-fold. […] Here we found a 50% decrease in VCAM-1 expression induced by LDL− and TNFα but pretreated with PPAR-α agonists. […] The VCAM-1 activation was reduced by two-fold in cells ectopically expressing human PPAR-alpha.

`CC(C)(Oc1ccc(C(=O)c2ccc(Cl)cc2)cc1)C(=O)O` [Fenofibric acid] was tested, and the “Decrease in LDL−/TNFα dependent VCAM-1 induction” value (VCAM-1 promoter; cells co-transfected with PPAR-alpha vector) was 60% and the “Decrease in LDL−/TNFα dependent VCAM-1 induction” value (VCAM-1 promoter; cells co-transfected with control vector) was 40%.

For `CCCCCCCCCCC[C@@H](C[C@@H]1OC(=O)[C@H]1CCCCCC)OC(=O)[C@H](CC(C)C)NC=O` [tetrahydrolipstatin], the “Effect on VLDL-induced ACO response” value [1] was “inhibited this VLDL response” and the “Effect on VLDL/LPL-mediated PPAR-alpha-LBD activation” value [2] was “inhibited LPL-mediated PPAR-alpha-LBD activation in a dose-dependent fashion”.

ApoCIII: natural LPL inhibitor was tested, and the “Effect on LPL/LDL− dependent activation of PPAR-alpha” value [2] was “inhibited; also recorded: abolished”.

TNFα was tested, and the “Increase in VCAM-1 surface expression” value (VCAM-1) was 5 fold.

cyclochalasin was tested, and the “Effect on VLDL/LPL-mediated PPAR-alpha-LBD activation” value [2] was “None of these treatments had any effect”.

For heparin, the “Effect on VLDL/LPL-mediated PPAR-alpha-LBD activation” value [2] was “None of these treatments had any effect”.

monoacylglycerols [MAG] was tested, and the “PPAR-alpha-LBD activation by lipolytic products (significant activators of PPAR-alpha)” value ([2]; lipid added alone) was “activates PPAR-alpha-LBD”.

B1: heat-inactivated LPL: heat-inactivated lipoprotein lipase (protein, UniProt P06858 28-475, looked up)
Lipoprotein lipase: ADQRRDFIDIESKFALRTPEDTAEDTCHLIPGVAESVATCHFNHSSKTFMVIHGWTVTGMYESWVPKLVAALYKREPDSNVIVVDWLSRAQEHYPVSAGYTKLVGQDVARFINWMEEEFNYPLDNVHLLGYSLGAHAAGIAGSLTNKKVNRITGLDPAGPNFEYAEAPSRLSPDDADFVDVLHTFTRGSPGRSIGIQKPVGHVDIYPNGGTFQPGCNIGEAIRVIAERGLGDVDQLVKCSHERSIHLFIDSLLNEENPSKAYRCSSKEAFEKGLCLSCRKNRCNNLGYEINKVRAKRSSKMYLKTRSQMPYKVFHYQVKIHFSGTESETHTNQAFEISLYGTVAESENIPFTLPEVSTNKTYSFLIYTEVDIGELLMLKLKWKSDSYFSWSDWWSSPGFAIQKIRVKAGETQKKVIFCSREKVSHLQKGKAPAVFVKCHDKSLNKKSG
modifications: heat-inactivated
For B1, the “Effect on LPL/LDL− dependent activation of PPAR-alpha” value [2] was “abolished” and the “PPAR-alpha-LBD activation after enzyme treatment of lipoproteins” value ([2]; enzyme plus lipoprotein) was “failed to induce PPAR-alpha-LBD activation”.
